Measured values: patent US7183260B2, “C-terminal modified oxamyl dipeptides as inhibitors of the ICE/ced-3 family of cysteine proteases” (Idun Pharmaceuticals, Inc., priority 1998, dated 2007)
Where a SMILES comes first, the peptide text is derived from it. The star is where a group is joined. Cbz = O=C(OCc1ccccc1)*; CH2F = FC*

Tests used:
Assay type in all cases: biochemical
Settings in all cases: continuous assay 60 min, reaction initiated by adding enzyme to substrate-inhibitor mixture
MCH-5 = MCH-5 (Homo sapiens, UniProt Q14790); assay: Dissociation constant Ki and irreversible rate constant k3 for irreversible inhibitors (Mch5)
Chain of MCH-5 (Q14790 217-374 limits assumed, species assumed): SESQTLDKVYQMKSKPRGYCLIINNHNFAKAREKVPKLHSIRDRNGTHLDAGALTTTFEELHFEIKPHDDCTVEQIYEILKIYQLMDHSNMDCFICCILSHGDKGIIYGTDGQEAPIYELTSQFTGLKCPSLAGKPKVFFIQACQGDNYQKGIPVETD
Chain of MCH-5 (Q14790 385-479 limits assumed, species assumed): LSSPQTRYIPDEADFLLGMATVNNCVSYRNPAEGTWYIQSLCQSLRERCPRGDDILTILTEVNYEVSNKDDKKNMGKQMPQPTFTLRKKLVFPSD

MCH-2 = molecular target: T1, MCH-2 (Homo sapiens, UniProt P55212); assay: Dissociation constant Ki and irreversible rate constant k3 for irreversible inhibitors (Mch2)
T1 sequence (P55212 24-179 limits assumed): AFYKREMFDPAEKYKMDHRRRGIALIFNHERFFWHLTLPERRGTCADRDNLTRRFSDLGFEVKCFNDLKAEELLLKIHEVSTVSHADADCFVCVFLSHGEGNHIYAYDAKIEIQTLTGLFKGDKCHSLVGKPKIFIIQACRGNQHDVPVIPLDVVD
T1 sequence (P55212 194-293 limits assumed): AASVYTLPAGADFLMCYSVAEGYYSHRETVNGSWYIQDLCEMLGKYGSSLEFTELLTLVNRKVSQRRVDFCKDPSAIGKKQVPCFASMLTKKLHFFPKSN

mICE = molecular target: T2, mICE (Mus musculus, UniProt P29452); assay: Dissociation constant Ki and irreversible rate constant k3 for irreversible inhibitors (ICE)
T2 sequence (P29452 123-296 limits assumed): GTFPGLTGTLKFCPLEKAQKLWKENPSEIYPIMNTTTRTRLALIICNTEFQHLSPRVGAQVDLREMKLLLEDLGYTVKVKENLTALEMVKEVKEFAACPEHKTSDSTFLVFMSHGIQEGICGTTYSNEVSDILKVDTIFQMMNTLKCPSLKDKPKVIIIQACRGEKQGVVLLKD
T2 sequence (P29452 315-402 limits assumed): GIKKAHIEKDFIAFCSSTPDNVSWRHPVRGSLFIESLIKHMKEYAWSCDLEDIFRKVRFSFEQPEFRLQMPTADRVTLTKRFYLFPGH

CPP32 = molecular target: T3, CPP32 (Homo sapiens, UniProt P42574); assay: Dissociation constant Ki and irreversible rate constant k3 for irreversible inhibitors (CPP32)
T3 sequence (P42574 29-175 limits assumed): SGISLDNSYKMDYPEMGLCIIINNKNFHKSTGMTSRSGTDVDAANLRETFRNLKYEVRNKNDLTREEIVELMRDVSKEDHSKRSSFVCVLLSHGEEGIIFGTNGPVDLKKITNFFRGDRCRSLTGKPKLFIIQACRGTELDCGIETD
T3 sequence (P42574 176-277 limits assumed): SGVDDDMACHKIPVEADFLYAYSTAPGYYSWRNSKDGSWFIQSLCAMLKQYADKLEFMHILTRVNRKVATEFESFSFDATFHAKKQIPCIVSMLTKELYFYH

| SMILES | Ki (MCH-5) [µM] | MCH-5 k3/Ki (MCH-5) | Ki (MCH-2) [µM] | Ki (mICE) [µM] | mICE k3/Ki (mICE) | CPP32 k3/Ki (CPP32) | Ki (CPP32) [µM] | MCH-2 k3/Ki (MCH-2) |
| --- | --- | --- | --- | --- | --- | --- | --- | --- |
| CC(C)[C@H](NC(=O)C(=O)Nc1cccc2ccccc12)C(=O)N[C@@H](CC(=O)O)C(=O)COc1c(-c2ccccc2)oc2ccccc2c1=O [Example 9] | 0.453 | 0 mol⁻¹ s⁻¹ | 0.336 | 0.128 | 82,100 moles^−1 seconds^−1 | 43,600 moles^−1 seconds^−1 | 0.059 | – |
| CC(C)[C@H](NC(=O)C(=O)Nc1nc2ccccc2[nH]1)C(=O)N[C@@H](CC(=O)O)C(=O)COc1c(F)c(F)cc(F)c1F [Example 88] | 0.128 | 20,800 moles^−1 seconds^−1 | 1.43 | 0.359 | 27,400 moles^−1 seconds^−1 | 3,130 moles^−1 seconds^−1 | 3.13 | 1,840 moles^−1 seconds^−1 |
| CC(C)[C@H](NC(=O)C(=O)Nc1cccc2ccccc12)C(=O)N[C@@H](CC(=O)O)C(=O)COc1ccc(O)cc1 [Example 15] | 0.0057 | 625,000 moles^−1 seconds^−1 | 0.037 | 0.0061 | 1,840,000 moles^−1 seconds^−1 | 286,000 moles^−1 seconds^−1 | 0.042 | 69,100 moles^−1 seconds^−1 |
| C[C@H](NC(=O)C(=O)Nc1ccccc1F)C(=O)N[C@@H](CC(=O)O)C(=O)COc1c(F)c(F)cc(F)c1F [Example 66] | 0.013 | 170,000 moles^−1 seconds^−1 | 0.019 | 0.025 | 339,000 moles^−1 seconds^−1 | 478,000 moles^−1 seconds^−1 | 0.028 | 212,000 moles^−1 seconds^−1 |
| Cc1cc(OCC(=O)[C@H](CC(=O)O)NC(=O)[C@@H](NC(=O)C(=O)Nc2cccc3ccccc23)C(C)C)cc(=O)o1 [Example 8] | 0.029 | – | 0.254 | – | – | – | 0.026 | – |
| CC(C)[C@H](NC(=O)C(=O)Nc1cccc2ccccc12)C(=O)NC(CC(=O)O)C(=O)CF (mixture of isomers) [Example 3, (3RS)-3-[N-(N′-(1-NAPHTHYL)OXAMYL)VALINYL]AMINO-5-FLUORO-4-OXOPEINTANOIC ACID] | 0.0013 | 1,160,000 moles^−1 seconds^−1 | 0.017 | 0.0018 | 2,170,000 moles^−1 seconds^−1 | 413,000 moles^−1 seconds^−1 | 0.032 | 199,000 moles^−1 seconds^−1 |
| CC(C)[C@H](NC(=O)C(=O)Nc1ccccc1Cl)C(=O)N[C@@H](CC(=O)O)C(=O)COc1c(F)c(F)cc(F)c1F [Example 105] | 0.052 | 234,000 moles^−1 seconds^−1 | 0.026 | 0.0084 | 1,540,000 moles^−1 seconds^−1 | 96,300 moles^−1 seconds^−1 | 0.122 | 161,000 moles^−1 seconds^−1 |
| CC(C)[C@H](NC(=O)C(=O)Nc1c(F)c(F)nc(F)c1F)C(=O)N[C@@H](CC(=O)O)C(=O)COc1c(F)c(F)cc(F)c1F [Example 102] | 0.01 | 389,000 moles^−1 seconds^−1 | 0.022 | 0.014 | 1,220,000 moles^−1 seconds^−1 | 153,000 moles^−1 seconds^−1 | 0.127 | 170,000 moles^−1 seconds^−1 |
| C[C@H](NC(=O)C(=O)NCc1ccccc1)C(=O)N[C@@H](CC(=O)O)C(=O)COC(=O)c1c(Cl)cccc1Cl [Example 52] | 0.062 | 203,000 moles^−1 seconds^−1 | 0.02 | 0.34 | 59,100 moles^−1 seconds^−1 | 600,000 moles^−1 seconds^−1 | 0.029 | 244,000 moles^−1 seconds^−1 |
| CC(C)[C@H](NC(=O)C(=O)NCc1ccccc1)C(=O)N[C@@H](CC(=O)O)C(=O)COc1c(F)c(F)cc(F)c1F [Example 79] | 0.005 | 472,000 moles^−1 seconds^−1 | 0.125 | 0.006 | 1,800,000 moles^−1 seconds^−1 | 21,000 moles^−1 seconds^−1 | 0.405 | 16,600 moles^−1 seconds^−1 |
| CC(C)[C@H](NC(=O)C(=O)Nc1cccc2ccccc12)C(=O)N[C@@H](CC(=O)O)C(=O)COc1cccc2ccccc12 [Example 18] | 0.01 | 177,000 moles^−1 seconds^−1 | 0.02 | 0.033 | 254,000 moles^−1 seconds^−1 | 180,000 moles^−1 seconds^−1 | 0.046 | 83,700 moles^−1 seconds^−1 |
| CC(C)[C@H](NC(=O)C(=O)Nc1cccc2ccccc12)C(=O)N[C@@H](CC(=O)O)C(=O)COP(=O)(c1ccccc1)c1ccccc1 [Example 11] | 0.0013 | – | 0.011 | 0.005 | – | – | 0.025 | – |
| C[C@H](NC(=O)C(=O)Nc1cc(C(C)(C)C)ccc1C(C)(C)C)C(=O)N[C@@H](CC(=O)O)C(=O)COP(=O)(c1ccccc1)c1ccccc1 [Example 59] | 0.0055 | 1,340,000 moles^−1 seconds^−1 | 0.015 | 0.045 | 211,000 moles^−1 seconds^−1 | 104,000 moles^−1 seconds^−1 | 0.071 | 308,000 moles^−1 seconds^−1 |
| CC(C)[C@H](NC(=O)C(=O)Nc1ccccc1Br)C(=O)N[C@@H](CC(=O)O)C(=O)COc1c(F)c(F)cc(F)c1F [Example 106] | 0.0034 | 1,305,000 moles^−1 seconds^−1 | 0.019 | 0.009 | 1,080,000 moles^−1 seconds^−1 | 276,000 moles^−1 seconds^−1 | 0.063 | 230,000 moles^−1 seconds^−1 |
| CC(NC(=O)C(NC(=O)OCc1ccccc1)C(C)C)C(=O)NC(CC(=O)O)C(=O)CF (stereo not drawn) [refer., Cbz-ValAlaAsp-CH2F, reference compound] (Cbz-Val-Ala-Asp-CH2F; configuration not given here) | 0.018 | 83,300 moles^−1 seconds^−1 | 0.594 | 0.015 | 214,000 moles^−1 seconds^−1 | 12,200 moles^−1 seconds^−1 | 0.82 | 2,950 moles^−1 seconds^−1 |
| CC(C)[C@H](NC(=O)C(=O)NCCc1ccccc1)C(=O)N[C@@H](CC(=O)O)C(=O)COc1c(F)c(F)cc(F)c1F [Example 80] | 0.162 | 16,600 moles^−1 seconds^−1 | 0.175 | 0.182 | 77,100 moles^−1 seconds^−1 | 13,400 moles^−1 seconds^−1 | 0.515 | 12,600 moles^−1 seconds^−1 |
| C[C@H](NC(=O)C(=O)Nc1cc(C(C)(C)C)ccc1C(C)(C)C)C(=O)N[C@@H](CC(=O)O)C(=O)COC(=O)c1c(Cl)cccc1Cl [Example 60] | 0.014 | 306,000 moles^−1 seconds^−1 | 0.049 | 0.026 | 289,000 moles^−1 seconds^−1 | 189,000 moles^−1 seconds^−1 | 0.058 | 146,000 moles^−1 seconds^−1 |
| C[C@H](NC(=O)C(=O)Nc1cc(C(C)(C)C)ccc1C(C)(C)C)C(=O)N[C@@H](CC(=O)O)C(=O)COc1c(F)c(F)cc(F)c1F [Example 40] | 0.01 | 248,000 moles^−1 seconds^−1 | 0.015 | 0.045 | 195,000 moles^−1 seconds^−1 | 221,000 moles^−1 seconds^−1 | 0.063 | 192,000 moles^−1 seconds^−1 |
| CC(C)[C@H](NC(=O)C(=O)Nc1ccccn1)C(=O)N[C@@H](CC(=O)O)C(=O)COc1c(F)c(F)cc(F)c1F [Example 100] | 0.157 | 19,500 moles^−1 seconds^−1 | 0.188 | 0.206 | 36,000 moles^−1 seconds^−1 | 9,850 moles^−1 seconds^−1 | 2.25 | 11,600 moles^−1 seconds^−1 |
| CC(C)[C@H](NC(=O)C(=O)Nc1cccc2ccccc12)C(=O)N[C@@H](CC(=O)O)C(=O)COc1c(F)cccc1F [Example 5] | 0.005 | – | 0.025 | 0.0074 | – | – | 0.041 | – |
| C/C=C/OC(=O)Oc1ccc(OCC(=O)[C@H](CC(=O)O)NC(=O)[C@@H](NC(=O)C(=O)Nc2cccc3ccccc23)C(C)C)cc1 [Example 16] | – | – | 0.043 | 0.0095 | – | – | – | – |
